Experimental data as given in ChEMBL document CHEMBL4346755, “Discovery and optimization of pyridyl-cycloalkyl-carboxylic acids as inhibitors of microsomal prostaglandin E synthase-1 for the treatment of endometriosis” (Bioorg Med Chem Lett, 2019).
Values belong to the molecule of their own block, whether it stands above or below them. Activity calls are given as the source filed them. The calls are words filed in the database; no cut-off is given here.

Key:
[1] = Hepatic extraction ratio in Han Wistar rat liver microsomes at 1 uM measured upto 90 mins by LC-MS/MS; assay type: ADME, Microsome; conditions: read-out: ERH
Prostaglandin E synthase [2] = target: T1, Prostaglandin E synthase (Mus musculus, UniProt Q9JM51); assay: Inhibition of mouse recombinant FLAG-tagged PTGES expressed in baculovirus infected Hi-5 insect cells using prostaglandin H2 as substrate incubated for 20 mins followed by substrate addition and incubated for 60 sec by TR-FRET assay
T1 sequence (Q9JM51 whole entry): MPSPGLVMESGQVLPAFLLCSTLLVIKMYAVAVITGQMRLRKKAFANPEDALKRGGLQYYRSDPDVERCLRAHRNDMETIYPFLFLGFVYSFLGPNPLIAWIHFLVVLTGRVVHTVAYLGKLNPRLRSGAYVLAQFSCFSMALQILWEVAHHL

[3] = Inhibition of rat recombinant FLAG-tagged PTGES expressed in baculovirus infected Hi-5 insect cells using prostaglandin H2 as substrate incubated for 20 mins followed by substrate addition and incubated for 60 sec by TR-FRET assay
Prostaglandin E synthase [4] = target: T2, Prostaglandin E synthase (Homo sapiens, UniProt O14684); assay: Inhibition of human recombinant FLAG-tagged PTGES expressed in baculovirus infected Hi-5 insect cells using prostaglandin H2 as substrate preincubated for 20 mins followed by substrate addition and incubated for 60 sec by TR-FRET assay
T2 sequence (O14684 whole entry): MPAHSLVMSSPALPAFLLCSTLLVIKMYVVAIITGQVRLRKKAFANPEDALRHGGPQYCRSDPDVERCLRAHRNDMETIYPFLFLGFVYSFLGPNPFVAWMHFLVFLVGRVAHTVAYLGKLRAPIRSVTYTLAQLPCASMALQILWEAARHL

[5] = Apparent permeability across apical to basolateral side in human Caco2 cells measured at 2 uM incubated for 2 hrs by LC/MS/MS analysis; assay type: ADME, cell-based; conditions: Caco-2
[6] = Oral bioavailability in Wistar rat at 0.5 to 1 mg/kg measured upto 24 hrs by LC-MS/MS; assay type: ADME, organism-based; conditions: in vivo
Mus musculus [7] = assay: Antinociceptive activity in C57BL/6 mouse model of complete Freund's adjuvant-induced inflammatory pain assessed as inhibition of PGE2 production at 100 mg/kg, po administered after 2 days of CFA induction and measured after 1 hr by ELISA; assay type: functional, organism-based
Rattus norvegicus [8] = assay: Antihyperalgesia activity in Sprague-Dawley rat endometriosis model assessed as viscero-motor response at 75 mg/kg, po bid administered for 3 to 5 weeks of post surgery by EMG method; assay type: functional, organism-based
Rattus norvegicus [9] = assay: Antihyperalgesia activity in Sprague-Dawley rat endometriosis model assessed as decrease in proliferation of lesions by measuring expression of Ki67 at 75 mg/kg, po bid administered for 3 to 5 weeks of post surgery by RT-PCR analysis; assay type: functional, organism-based
Mus musculus [10] = assay: Antinociceptive activity in C57BL/6 mouse model of complete Freund's adjuvant-induced inflammatory pain assessed as inhibition of PGE2 production at 30 to 100 mg/kg, po administered after 2 days of CFA induction and measured after 1 hr by ELISA; assay type: functional, organism-based
[11] = Total blood clearance in Wistar rat blood at 0.5 to 1 mg/kg, […] 0.5 to 10 mg/kg, ig measured upto 24 hrs by LC-MS/MS; assay type: ADME, organism-based; conditions: whole blood
Mus musculus [12] = assay: Antinociceptive activity in C57BL/6 mouse model of complete Freund's adjuvant-induced inflammatory pain assessed as reduction in pain-related behavior at 30 to 100 mg/kg, po administered after 2 days of CFA induction and measured after 1 hr by using Plexiglas chamber; assay type: functional, organism-based
[13] = Efflux ratio of apparent permeability from basolateral to apical over apical to basolateral side in human Caco2 cells at 2 uM incubated for 2 hrs by LC/MS/MS analysis; assay type: ADME, cell-based; conditions: Caco-2
[14] = Half life in Wistar rat blood at 0.5 to 1 mg/kg, […] 0.5 to 10 mg/kg, ig LC-MS/MS; assay type: ADME, organism-based; conditions: whole blood
[15] = Volume of distribution at steady state in Wistar rat blood at 0.5 to 1 mg/kg, […] 0.5 to 10 mg/kg, ig measured upto 24 hrs by LC-MS/MS; assay type: ADME, organism-based; conditions: in vivo
Rattus norvegicus [16] = assay: Antihyperalgesia activity in Sprague-Dawley rat endometriosis model assessed as viscero-motor response at 75 mg/kg, po bid administered for 3 to 5 weeks of post surgery and measured after 1 week by EMG method; assay type: functional, organism-based
[17] = Ratio of unbound drug level in CFA-induced mouse to IC50 for mouse recombinant FLAG-tagged PTGES inhibition; assay type: ADME; conditions: in vivo
[18] = Selectivity ratio of IC50 for mouse recombinant FLAG-tagged PTGES to human recombinant FLAG-tagged PTGES expressed in baculovirus infected Hi-5 insect cells using prostaglandin H2 as substrate preincubated for 20 mins followed by substrate addition and incubated for 60 sec by TR-FRET assay

Compound: CCc1cncc(-c2ccc(C(C(=O)Nc3cccc([C@@H](CC)CC(=O)O)c3C)C3CCCC3)cc2)c1 (stereo not given in full)
- hepatic extraction ratio at […], 1 µM [1]: 0.44
- IC50 (Prostaglandin E synthase [2]): 0.203 µM
- IC50 [3]: 0.19 µM

Compound: O=C(O)CCc1ccc(NC(=O)C(c2ccc(-c3cncc(Cl)c3)cc2)C2CCCC2)cc1 (stereo not given)
- IC50 (Prostaglandin E synthase [4]): > 20 µM

Compound: Cc1c(NC(=O)[C@@H](c2ccc(-c3cncc(Cl)c3)cc2)C2CCCC2)cccc1[C@@H](C)CC(=O)O
- IC50 (Prostaglandin E synthase [2]): 0.584 µM
- IC50 [3]: 1.36 µM

Compound: Cc1c(CCC(=O)O)cccc1C(=O)NC(c1ccc(-c2cncc(Cl)c2)cc1)C1CCCC1 (stereo not given)
- IC50 (Prostaglandin E synthase [4]): > 20 µM

Compound: Cc1c(NC(=O)[C@H](c2ccc(-c3cncc(Cl)c3)cc2)C2CCCC2)cccc1[C@H](C)CC(=O)O
- IC50 (Prostaglandin E synthase [2]): 3.08 µM
- IC50 [3]: 8.46 µM

Compound: Cc1c(CCC(=O)O)cccc1N(C)C(=O)C(c1ccc(-c2cncc(Cl)c2)cc1)C1CCCC1 (stereo not given)
- IC50 (Prostaglandin E synthase [4]): > 20 µM

Compound: CC(C)Cc1ccc(C(C)C(=O)O)cc1 (stereo not given)
- Activity (Mus musculus [7]): Active

Compound: Cc1c(NC(=O)[C@@H](c2ccc(-c3cncc(Cl)c3)cc2)C2CCCC2)cccc1[C@H](C)CC(=O)O
- IC50 (Prostaglandin E synthase [2]): 0.339 µM
- IC50 [3]: 0.895 µM

Compound: Cc1c(NC(=O)[C@H](c2ccc(-c3cncc(Cl)c3)cc2)C2CCCC2)cccc1[C@@H](C)CC(=O)O
- IC50 (Prostaglandin E synthase [2]): 12.6 µM
- IC50 [3]: 17.7 µM

Compound: Cc1c(NC(=O)[C@@H](c2ccc(-c3cncc(Cl)c3)cc2)C2CCCC2)cccc1OCC(=O)O
- Papp A→B at 2 h, 2 µM [5]: 0.22 ×10⁻⁶ cm/s
- bioavailability [6]: 8%

Compound: Cc1c(CCC(=O)O)cccc1NC(=O)C(c1ccccc1)c1ccc(-c2cncc(Cl)c2)cc1 (stereo not given)
- IC50 (Prostaglandin E synthase [4]): 4.49 µM

Compound: Cc1ccc(-c2ccc(C(C(=O)Nc3cccc(CCC(=O)O)c3C)C3CCCC3)cc2)cn1 (stereo not given)
- Ratio IC50 [18]: 5

Compound: Cc1c(CCc2nnn[nH]2)cccc1NC(=O)C(c1ccc(-c2cncc(Cl)c2)cc1)C1CCCC1 (stereo not given)
- IC50 (Prostaglandin E synthase [4]): 0.152 µM

Compound: O=C(O)CCc1cccc(NC(=O)C(c2ccc(-c3cncc(Cl)c3)cc2)C2CCCC2)c1OC(F)(F)F (stereo not given)
- IC50 (Prostaglandin E synthase [4]): > 20 µM

Compound: Cc1c(CCC(=O)O)cccc1NC(=O)C(c1ccc(-c2cncc(Cl)c2)cc1)C1CCN(C)C1=O (stereo not given)
- IC50 (Prostaglandin E synthase [4]): > 20 µM

Compound: CC[C@@H](CC(=O)O)c1cccc(NC(=O)C(c2ccc(-c3cncc(CC(C)C)c3)cc2)C2CCCC2)c1C (stereo not given in full)
- IC50 (Prostaglandin E synthase [2]): 0.084 µM
- IC50 [3]: 0.162 µM

Now from value to molecule, other results behind:

- IC50 (Prostaglandin E synthase [4]): 0.327 µM
Compound: Cc1c(CCC(=O)O)cccc1NC(=O)C(c1ccc(-c2cncc(Cl)c2)nc1)C1CCCC1 (stereo not given)

- Papp A→B at 2 h, 2 µM [5]: 5.9 ×10⁻⁶ cm/s
- bioavailability [6]: 72%
Compound: Cc1c(CCC(=O)O)cccc1NC(=O)[C@@H](c1ccc(-c2cncc(Cl)c2)c(F)c1)C1CCCC1

- Papp A→B at 2 h, 2 µM [5]: 8 ×10⁻⁶ cm/s
- bioavailability [6]: 73%
Compound: Cc1c(CCC(=O)O)cccc1NC(=O)[C@@H](c1ccc(-c2cncc(C(F)(F)F)c2)cc1)C1CCCC1

- hepatic extraction ratio at […], 1 µM [1]: 0.02
- CL/F [11]: 5 mL/min/kg
- IC50 (Prostaglandin E synthase [2]): 0.765 µM
- Papp A→B at 2 h, 2 µM [5]: 6.9 ×10⁻⁶ cm/s
- efflux ratio at 2 h, 2 µM [13]: 2.9
- half-life [14]: 4.3 h
- Vdss [15]: 0.9 L/kg
- bioavailability [6]: 98%
- Ratio [17]: 3
Compound: Cc1c(CCC(=O)O)cccc1NC(=O)[C@@H](c1ccc(-c2cncc(Cl)c2)cc1)C1CCCC1
- Activity (Rattus norvegicus [8]): Active
- Activity (Rattus norvegicus [9]): Active
- Activity (Mus musculus [10]): Active
- Activity (Mus musculus [12]): Active
- Activity (Rattus norvegicus [16]): Active
- IC50 [3]: 1.27 µM

- IC50 (Prostaglandin E synthase [2]): 0.818 µM
Compound: Cc1cncc(-c2ccc(C(C(=O)Nc3cccc(CCC(=O)O)c3C)C3CCCC3)cc2)c1 (stereo not given)
- IC50 [3]: 2.59 µM

- IC50 (Prostaglandin E synthase [4]): 9.26 µM
Compound: Cc1c(CCC(=O)O)cccc1NC(=O)C(c1ccc(-c2ccncc2)cc1)C1CCCC1 (stereo not given)

- Papp A→B at 2 h, 2 µM [5]: 3.6 ×10⁻⁶ cm/s
Compound: Cc1c(CCC(=O)O)cccc1NC(=O)[C@@H](c1ccc(-c2cccnc2)cc1)C1CCCC1

- IC50 (Prostaglandin E synthase [4]): > 20 µM
Compound: Cc1c(CCC(=O)O)cccc1NC(=O)C(c1cccc(-c2cccnc2)c1)C1CCCC1 (stereo not given)

- IC50 (Prostaglandin E synthase [2]): 0.191 µM
Compound: Cc1c(CCC(=O)O)cccc1NC(=O)C(c1ccc(-c2cncc(CC(C)C)c2)cc1)C1CCCC1 (stereo not given)

- IC50 (Prostaglandin E synthase [4]): 2.33 µM
Compound: Cc1c(CCC(=O)O)cccc1NC(=O)C(c1ccc(-c2cncc(Cl)c2)cn1)C1CCCC1 (stereo not given)

- IC50 (Prostaglandin E synthase [4]): 0.276 µM
Compound: Cc1c(CCC(=O)O)cccc1NC(=O)C(c1ccc(-c2cccc(Cl)c2)cc1)C1CCCC1 (stereo not given)

- IC50 (Prostaglandin E synthase [4]): 5.86 µM
Compound: Cc1c(CCC(=O)O)cccc1NC(=O)C(c1cccc(-c2ccccc2)c1)C1CCCC1 (stereo not given)

- IC50 (Prostaglandin E synthase [4]): > 20 µM
Compound: Cc1ncccc1-c1ccc(C(C(=O)Nc2cccc(CCC(=O)O)c2C)C2CCCC2)cc1 (stereo not given)

- IC50 (Prostaglandin E synthase [4]): > 20 µM
Compound: Cc1c(CCC(=O)O)cccc1NC(=O)C(c1ccc(-c2ccccn2)cc1)C1CCCC1 (stereo not given)
